Assay results taken from ChEMBL document CHEMBL6078700, “Synthesis of novel deuterated EGFR/ALK dual-target inhibitors and their activity against non-small cell lung cancer” (Eur J Med Chem, 2025).
Activity calls are given as the source filed them.

Experiments:
[1] = test system: NCI-H1975; experiment: Downregulation of Tomm40 expression in human NCI-H1975 cells; assay type: functional, cell-based; conditions: tested as the 2H-labelled form
[2] = target: ALK tyrosine kinase receptor (Homo sapiens) (UniProt Q9UM73); experiment: Inhibition of ALK in human NCI-H2228 cells assessed as decrease in pERK level upto 10 nM incubated for 2 to 4 hrs by Western blot analysis; assay type: cell-based; conditions: time 2-4 hrs, tested as the 2H-labelled form
ALK tyrosine kinase receptor (Homo sapiens), sequence (Q9UM73 19-1620 limits assumed): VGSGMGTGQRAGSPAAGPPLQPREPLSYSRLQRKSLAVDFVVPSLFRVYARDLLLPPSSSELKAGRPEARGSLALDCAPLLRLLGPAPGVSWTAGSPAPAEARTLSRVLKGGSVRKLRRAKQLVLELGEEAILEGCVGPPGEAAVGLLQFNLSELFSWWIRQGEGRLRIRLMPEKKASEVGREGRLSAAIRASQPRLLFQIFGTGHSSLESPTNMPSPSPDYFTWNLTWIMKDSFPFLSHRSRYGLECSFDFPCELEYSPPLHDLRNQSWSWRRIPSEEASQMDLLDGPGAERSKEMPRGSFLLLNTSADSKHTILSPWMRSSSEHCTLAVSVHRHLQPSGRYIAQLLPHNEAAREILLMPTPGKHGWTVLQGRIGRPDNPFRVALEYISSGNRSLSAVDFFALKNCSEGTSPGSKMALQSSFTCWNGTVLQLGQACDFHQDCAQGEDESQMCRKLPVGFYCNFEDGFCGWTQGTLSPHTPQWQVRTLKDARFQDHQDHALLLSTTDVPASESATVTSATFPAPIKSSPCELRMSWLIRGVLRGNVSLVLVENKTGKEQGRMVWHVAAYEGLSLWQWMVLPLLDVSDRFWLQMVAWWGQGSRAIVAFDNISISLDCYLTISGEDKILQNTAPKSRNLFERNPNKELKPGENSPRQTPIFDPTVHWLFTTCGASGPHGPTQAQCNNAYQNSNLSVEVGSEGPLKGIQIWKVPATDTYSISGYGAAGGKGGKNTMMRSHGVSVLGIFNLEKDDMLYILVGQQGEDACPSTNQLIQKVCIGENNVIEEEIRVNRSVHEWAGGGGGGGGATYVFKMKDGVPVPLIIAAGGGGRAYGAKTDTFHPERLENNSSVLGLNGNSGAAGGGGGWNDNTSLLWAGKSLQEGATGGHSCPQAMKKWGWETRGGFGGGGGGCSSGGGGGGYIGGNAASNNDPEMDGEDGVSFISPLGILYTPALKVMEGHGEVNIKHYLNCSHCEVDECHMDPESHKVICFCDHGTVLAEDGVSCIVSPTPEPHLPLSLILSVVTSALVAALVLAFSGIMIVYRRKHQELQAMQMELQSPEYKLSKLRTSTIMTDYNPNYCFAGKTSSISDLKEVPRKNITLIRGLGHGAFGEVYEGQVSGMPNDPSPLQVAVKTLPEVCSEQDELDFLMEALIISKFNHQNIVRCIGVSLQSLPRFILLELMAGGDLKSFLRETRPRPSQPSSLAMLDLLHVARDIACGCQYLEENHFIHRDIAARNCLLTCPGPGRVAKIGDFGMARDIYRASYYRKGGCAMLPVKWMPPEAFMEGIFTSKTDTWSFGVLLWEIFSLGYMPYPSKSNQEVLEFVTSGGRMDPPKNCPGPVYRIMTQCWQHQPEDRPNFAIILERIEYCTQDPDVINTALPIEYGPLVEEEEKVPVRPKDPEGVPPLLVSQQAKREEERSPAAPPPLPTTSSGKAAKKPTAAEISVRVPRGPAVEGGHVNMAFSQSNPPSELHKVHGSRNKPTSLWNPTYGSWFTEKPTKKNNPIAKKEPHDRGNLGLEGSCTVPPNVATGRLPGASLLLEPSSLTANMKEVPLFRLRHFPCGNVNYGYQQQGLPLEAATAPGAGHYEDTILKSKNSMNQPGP

[3] = test system: NCI-H1975; experiment: Downregulation of ERAP2 expression in human NCI-H1975 cells; assay type: functional, cell-based; conditions: tested as the 2H-labelled form
[4] = target: ALK tyrosine kinase receptor (Homo sapiens) (UniProt Q9UM73); experiment: Inhibition of ALK in human NCI-H2228 cells assessed as decrease in pAKT level upto 10 nM incubated for 2 to 4 hrs by Western blot analysis; assay type: cell-based; conditions: time 2-4 hrs, tested as the 2H-labelled form
[5] = test system: NCI-H1975; experiment: Anti-migration activity in human NCI-H1975 cells assessed as increase in E-cadherin level upto 10 nM incubated for 2 to 4 hrs by Western blot analysis; assay type: functional, cell-based; conditions: time 2-4 hrs, tested as the 2H-labelled form
[6] = test system: NCI-H1975; experiment: Induction of apoptosis in human NCI-H1975 cells assessed as increase in cleaved caspase-3 level upto 10 nM incubated for 2 to 4 hrs by Western blot analysis; assay type: functional, cell-based; conditions: time 2-4 hrs, tested as the 2H-labelled form
[7] = test system: NCI-H1975; experiment: Induction of DNA damage in human NCI-H1975 cells assessed as increase in pH2AX level upto 10 nM incubated for 2 to 4 hrs by Western blot analysis; assay type: functional, cell-based; conditions: time 2-4 hrs, tested as the 2H-labelled form
[8] = test system: NCI-H1975; experiment: Induction of apoptosis in human NCI-H1975 cells assessed as decrease in BCL-2 level upto 10 nM incubated for 2 to 4 hrs by Western blot analysis; assay type: functional, cell-based; conditions: time 2-4 hrs, tested as the 2H-labelled form
[9] = test system: NCI-H1975; experiment: Inhibition of colony formation in human NCI-H1975 cells assessed as reduction in tumor cell size incubated for 24 hrs followed by medium replacement daily without compound measured after 14 days by crystal violet staining based analysis; assay type: functional; conditions: dose 1-10 nM, tested as the 2H-labelled form
[10] = test system: Mus musculus; experiment: In vivo inhibition of EGFR phosphorylation in human NCI-H1975 cells xenografted in BALB/c-nu mouse at 15 to 30 mg/kg, po administered daily orally for 21 days by IHC analysis; assay type: functional, organism-based; conditions: dose 15-30 mg/kg, time 21.0 day, tested as the 2H-labelled form
[11] = test system: NCI-H1975; experiment: Induction of DNA damage in human NCI-H1975 cells at 1 nM incubated for 24 hrs by immunofluorescence based analysis; assay type: functional, cell-based; conditions: tested as the 2H-labelled form
[12] = test system: NCI-H1975; experiment: Induction of apoptosis in human NCI-H1975 cells assessed as decrease in BCL-XL level upto 10 nM incubated for 2 to 4 hrs by Western blot analysis; assay type: functional, cell-based; conditions: time 2-4 hrs, tested as the 2H-labelled form
[13] = test system: NCI-H1975; experiment: Inhibition of colony formation in human NCI-H1975 cells assessed as reduction in tumor cell number incubated for 24 hrs followed by medium replacement daily without compound measured after 14 days by crystal violet staining based analysis; assay type: functional; conditions: dose 1-10 nM, tested as the 2H-labelled form
[14] = test system: NCI-H1975; experiment: Induction of mitochondrial membrane potential in human NCI-H1975 cells assessed as reduction in red fluorescence at 5 nM by JC-1 dye based analysis; assay type: functional, cell-based; conditions: tested as the 2H-labelled form
[15] = test system: NCI-H1975; experiment: Anti-migration activity in human NCI-H1975 cells assessed as decrease in N-cadherin level upto 10 nM incubated for 2 to 4 hrs by Western blot analysis; assay type: functional, cell-based; conditions: time 2-4 hrs, tested as the 2H-labelled form
[16] = target: ALK tyrosine kinase receptor (Homo sapiens) (UniProt Q9UM73); experiment: Inhibition of ALK phosphorylation in human NCI-H2228 cells at 25 to 50 nM incubated for 12 hrs by immunofluorescence based analysis; assay type: cell-based; conditions: dose 25-50 nM, tested as the 2H-labelled form
[17] = test system: NCI-H1975; experiment: Anti-migration activity in human NCI-H1975 cells incubated for 24 hrs by scratch-wound assay; assay type: functional, cell-based; conditions: dose 5.0 nM, tested as the 2H-labelled form
[18] = target: ALK tyrosine kinase receptor (Homo sapiens) (UniProt Q9UM73); experiment: Inhibition of ALK phosphorylation in human NCI-H2228 cells upto 10 nM incubated for 2 to 4 hrs by Western blot analysis; assay type: cell-based; conditions: time 2-4 hrs, tested as the 2H-labelled form
[19] = test system: NCI-H1975; experiment: Induction of cell cycle arrest in human NCI-H1975 cells assessed as decrease in cyclin D1 level upto 10 nM incubated for 2 to 4 hrs by Western blot analysis; assay type: functional, cell-based; conditions: time 2-4 hrs, tested as the 2H-labelled form
[20] = test system: NCI-H1975; experiment: Anti-invasive activity in human NCI-H1975 cells incubated for 48 hrs by transwell assay; assay type: functional, cell-based; conditions: dose 1-10 nM, tested as the 2H-labelled form
[21] = test system: NCI-H1975; experiment: Induction of mitochondrial membrane potential in human NCI-H1975 cells assessed as increase in green fluorescence at 5 nM by JC-1 dye based analysis; assay type: functional, cell-based; conditions: tested as the 2H-labelled form
[22] = test system: NCI-H1975; experiment: Downregulation of LANCL1 expression in human NCI-H1975 cells; assay type: functional, cell-based; conditions: tested as the 2H-labelled form

C=CC(=O)Nc1cc(Nc2ncc(Cl)c(Nc3ccccc3[S+]([O-])CC)n2)c(OC)cc1N(C)CCN(C)C (single isomer, unassigned; (-))
active: Activity [1] | inhibition [2] | Activity [3] | inhibition [4] | Activity [5] | Activity [6] | Activity [7] | Activity [8] | inhibition [9] Dose-dependent-effect | inhibition [10] Active; Inhibitory Effect Was Observed Superior To That Of Osimertinib | Activity [11] | Activity [12] | inhibition [13] Dose-dependent-effect | Activity [14] | Activity [15] | inhibition [16] | Activity [17] Dose-dependent-effect | inhibition [18] | Activity [19] | Activity [20] Dose-dependent-effect | Activity [21] | Activity [22]
